Legend:
[1] = HPTS/DPX transport assay in zwitterionic EYPC vesicles; format: in vitro ADME; settings: for Y Conventional / Y Reverse: Extended Data Fig. 4d; for Ymax (%) maximal activity, carrier activity: 13 µM lipid, 10 mM Tris, 107 mM NaCl, HPTS fluorescence
Description: The well-established HPTS/DPX assay, which uses 8-hydroxypyrene-1,3,6-trisulfonate (HPTS) and p-xylene-bis-pyridinium (DPX), was implemented to monitor peptide-transport activation (Fig. 2a). […] A surfactant (Triton X-100) was added at the end of the experiment (t = 600 s) to release all vesicle content and normalize the fluorescence intensity data.
Fig. 2 Carrier activity obtained from the HPTS/DPX assay. a, Schematic representation of the transport of otherwise impermeable analytes facilitated by superchaotropic cluster anions with encapsulated HPTS/DPX probe/quencher pair used for signalling. […] Concentrations of carrier and cargo, when fixed, were 40 and 20 µM, respectively, unless explicitly stated. Source data
A thin lipid film was prepared by evaporating a lipid solution with a stream of nitrogen and then dried in vacuo overnight.
Fluorescence intensities were normalized to fractional emission as I(t) = (It − I0)/(I∞ − I0), where I0 = It before cluster addition and I∞ = It after lysis.
In the activator measurements, in which different activators were tested with the same cargo, the activator efficiency (Ea) is determined from their ability to activate the transport of an impermeable cargo molecule and is characterized by Ymax, its maximal activity, and EC50, the effective activator concentration. A potent activator reaches high Ymax at low EC50. To reflect both factors, the activator efficiency is defined as Ea = Ymax × (pEC50/fa), where pEC50 is the negative logarithm of EC50.
In the transport measurements, in which different types of cargo were tested with the same activator, the transport efficiency (Et) reports on the sensitivity of the cargo for being transported and is described by Ymax, the maximal activity, and EC50, the effective cargo concentration. An easily accessible cargo reaches high Ymax at low EC50. The transport efficiency is defined as a composition of both parameters according to Et = Ymax × (pEC50/ft), where pEC50 is the negative logarithm of EC50.
Extended Data Fig. 3 Transport activity. a, Transport activity, Y, in EYPC⊃HPTS/DPX vesicles as a function of cluster concentration at constant cargo concentration (WR7, 20 µM). b, Transport activity, Y, for B12Br12^2− (40 µM) in EYPC⊃HPTS/DPX vesicles as a function of the concentration of different cargo types; red lines correspond to the resulting fit with the Hill equation. Source data

[2] = Carboxyfluorescein (CF) leakage assay, anionic vesicles; settings: anionic liposomes DMPE/DPPG/CHOL 1/2/1, 13 µM phospholipids, 10 mM Tris, 140 mM NaCl, pH 7.4; CF fluorescence; Hill analysis; read-out: EC50 membrane-disrupting activity (CF leakage)
Description: A thin lipid film was prepared by evaporating a lipid solution with a stream of nitrogen and then dried in vacuo overnight. For the zwitterionic vesicles, 25 mg EYPC in 1 ml of CHCl3 was used, and for the anionic vesicles, DMPE/DPPG/CHOL (4.4/10.4/2.6 mg, 1/2/1 molar ratio) in a 1:1 mixture of CHCl3 and MeOH (1 ml) was used. […]
For leakage experiments with the lipid⊃CF vesicles, stock solutions (6 µl) were diluted with the respective buffer in a disposable plastic cuvette and gently stirred (total volume 2,000 µl, final lipid concentration 13 µM). CF fluorescence was monitored at λem = 517 nm (λex = 492 nm) as a function of time after addition of the respective activating or disrupting agent (cluster, WR7 or pyrenebutyrate) at 50 s, and Triton X-100 (24 µl 1.2% (wt/vol)) at 600 s, the latter to lyse the vesicles, for calibration. Fluorescence intensities were normalized to fractional emission intensity as I(t) = (It − I0)/(I∞ − I0), where I0 = It before disrupting agent addition and I∞ = It after Triton X-100 lysis. […]
Extended Data Fig. 1 Assays testing for stability vs leakage of the vesicles. a, Response of the HPTS/DPX assay towards a membrane-disrupting agent and chemical structures of the fluorescent dye HPTS and the quencher DPX. In this assay, large unilamellar vesicles are loaded with the HPTS/DPX probe/quencher pair, such that the fluorescence of HPTS is quenched. […]

B12Br12^2−
Ea activator efficiency ([1]; Ea = Ymax × (pEC50/fa), fa = 20.6, WR7 (20 μM) cargo, 10% error (SD)): 6.1
Y Conventional ([1]; [B12Br12] 1.00E-04 M): 0.7375
Y Reverse ([1]; [B12Br12] 1.00E-04 M): 0.7289
Y Conventional ([1]; [B12Br12] 1.00E-05 M): 0.08156
Y Reverse ([1]; [B12Br12] 1.00E-05 M): 0.07644
Y Conventional ([1]; [B12Br12] 1.00E-08 M): 0.00214
Y Reverse ([1]; [B12Br12] 1.00E-08 M): 9.09E-04
Y Conventional ([1]; [B12Br12] 1.20E-04 M): 0.8093
Y Reverse ([1]; [B12Br12] 1.20E-04 M): 0.8173
Y Conventional ([1]; [B12Br12] 1.50E-04 M): 0.8756
Y Conventional ([1]; [B12Br12] 2.00E-05 M): 0.1885
Y Reverse ([1]; [B12Br12] 2.00E-05 M): 0.1615
Y Conventional ([1]; [B12Br12] 2.50E-04 M): 0.8813
Y Reverse ([1]; [B12Br12] 2.50E-04 M): 0.8905
Y Conventional ([1]; [B12Br12] 3.00E-05 M): 0.3307
Y Reverse ([1]; [B12Br12] 3.00E-05 M): 0.3469
Y Conventional ([1]; [B12Br12] 4.00E-05 M): 0.4335
Y Conventional ([1]; [B12Br12] 5.00E-06 M): 0.03975
Y Conventional ([1]; [B12Br12] 6.00E-05 M): 0.5294
Y Reverse ([1]; [B12Br12] 6.00E-05 M): 0.5266
Y Conventional ([1]; [B12Br12] 8.00E-05 M): 0.6371
Ymax (%) maximal activity, carrier activity ([1]; carrier concentration varied, WR7 (20 μM) as common cargo, EYPC⊃HPTS/DPX vesicles, pH 7.4, Hill analysis, 10% error (SD) unless stated, n.a. = no detectable activity, d.l. = dye leakage, no determination possible): 95 ± 5%
Ymax (%) maximal activity, carrier activity ([1]; carrier concentration varied, WR7 (20 μM) as common cargo, EYPC⊃HPTS/DPX vesicles, pH 7.4, Hill analysis, 10% error (SD) unless stated, n.a. = no detectable activity, d.l. = dye leakage, no determination possible, listed as brominated cluster): 95%
EC50 ([1]; read-out: EC50 (μM) effective carrier concentration to reach 50% of Ymax, carrier concentration varied, WR7 (20 μM) as common cargo, EYPC⊃HPTS/DPX vesicles, pH 7.4, Hill analysis, 10% error (SD) unless stated, n.a. = no detectable activity, d.l. = dye leakage, no determination possible): 48 µM
EC50 [2]: 960 ± 100 µM
